# From patent US20250230193A1, “CYCLIC COMPOUND HAVING SELECTIVE KRAS INHIBITORY EFFECT ON HRAS AND NRAS” (CHUGAI SEIYAKU KABUSHIKI KAISHA, priority 2022, published 2025)
# Where a SMILES comes first, the peptide text is derived from it. Bridges are numbered along the chain shown (N, C = ends). [ ]: non-standard residue; d: D form. The star is where a group is joined. hPhe(3-Cl-4-CF3) = N[C@@H](CCc1ccc(C(F)(F)F)c(Cl)c1)C(=O)O; NPrPhe(4-CF3) = CCCN[C@@H](Cc1ccc(C(F)(F)F)cc1)C(=O)O; Morpholine(3S-CO) = O=C(O)[C@@H]1COCCN1; NMeGly(cPent) = CN[C@H](C(=O)O)C1CCCC1; NMeD = CN[C@@H](CC(=O)O)C(=O)O; NMeL = CN[C@@H](CC(C)C)C(=O)O; Morpholide = C1CN(*)CCO1; NMeA = CN[C@@H](C)C(=O)O; Ac5c = NC1(C(=O)O)CCCC1; Aze = O=C(O)[C@@H]1CCN1; Sar = CNCC(=O)O
# What was measured:
# [1] = biological target: GDP-bound NRAS wild-type protein (Homo sapiens, UniProt P01111); assay: Binding to NRAS by surface plasmon resonance (SPR), Single Cycle Kinetics
# [2] = biological target: GDP-bound HRAS wild-type protein (Homo sapiens, UniProt P01112); assay: Binding to HRAS by surface plasmon resonance (SPR), Single Cycle Kinetics
# [3] = GDP-bound NRAS wild-type vs GDP-bound KRAS wild-type, SPR
# [4] = GDP-bound HRAS wild-type vs GDP-bound KRAS wild-type, SPR
# GDP-bound HRAS wild-type protein, sequence (P01112 whole entry): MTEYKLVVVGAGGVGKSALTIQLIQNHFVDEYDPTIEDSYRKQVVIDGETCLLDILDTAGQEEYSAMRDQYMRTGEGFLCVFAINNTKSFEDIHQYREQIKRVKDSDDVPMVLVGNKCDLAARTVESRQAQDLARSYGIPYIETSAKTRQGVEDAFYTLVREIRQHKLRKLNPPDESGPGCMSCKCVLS
# GDP-bound NRAS wild-type protein, sequence (P01111 whole entry): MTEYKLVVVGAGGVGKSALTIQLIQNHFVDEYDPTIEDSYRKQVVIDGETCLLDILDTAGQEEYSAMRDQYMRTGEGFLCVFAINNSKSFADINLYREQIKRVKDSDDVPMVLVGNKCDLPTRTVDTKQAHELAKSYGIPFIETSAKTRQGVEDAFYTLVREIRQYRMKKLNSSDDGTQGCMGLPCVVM
compound,measurement,setting,value
CCCC[C@H]1C(=O)N[C@@H]([C@@H](C)CC)C(=O)N(C)CC(=O)N(C)[C@H]2C/C=C\CCN(C2=O)[C@@H](Cc2ccc(C(F)(F)F)cc2)C(=O)N(C)CC(=O)N[C@@H](CCc2cc(F)c(C(F)(F)F)c(F)c2)C(=O)N2C[C@H](OCC)C[C@H]2C(=O)NC2(CCC2)C(=O)N(C)[C@@H](C2CCCC2)C(=O)N(C)[C@H](C(=O)N(C)CCC)CC(=O)N1C [PP1704],NRAS/KRAS (ratio of KD value for NRAS to KD value for KRAS),[1]; [3],A (a compound having 10 or more and less than 20 is denoted as A)
same,HRAS/KRAS (ratio of KD value for HRAS to KD value for KRAS),[2]; [4],A (a compound having 10 or more and less than 20 is denoted as A)
CCCN1C(=O)[C@@H]2CCN2C(=O)[C@H](C)N(C)C(=O)[C@H]([C@@H](C)CC)NC(=O)[C@H](CC(C)C)N(C)C(=O)C[C@@H](C(=O)N2CCOCC2)N(C)C(=O)[C@H](C2CCCC2)N(C)C(=O)C2(CCCC2)NC(=O)[C@@H]2COCCN2C(=O)[C@H](CCc2ccc(C(F)(F)F)c(Cl)c2)NC(=O)CN(C)C(=O)[C@@H]1Cc1ccc(C(F)(F)F)cc1 [PP0286] ([NMeL]I[NMeA][Aze][NPrPhe(4-CF3)][Sar][hPhe(3-Cl-4-CF3)][Morpholine(3S-CO)][Ac5c][NMeGly(cPent)][NMeD]-Morpholide; lactam N-11),NRAS/KRAS (ratio of KD for GDP-bound NRAS wild-type to KD for KRAS),"[1]; KD ratio NRAS/KRAS, SPR",C (A compound having a KD ratio of 0.1 or more and less than 3 is denoted as C)
same,HRAS/KRAS (ratio of KD for GDP-bound HRAS wild-type to KD for KRAS),"[2]; KD ratio HRAS/KRAS, SPR",B (a compound having 3 or more and less than 10 is denoted as B)
CCCN(C)C(=O)[C@@H]1CC(=O)N(C)[C@@H](COC)C(=O)N[C@@H]([C@@H](C)CC)C(=O)N(C)CC(=O)N(C)[C@H]2C/C=C\CCN(C2=O)[C@@H](Cc2ccc(C(F)(F)F)cc2)C(=O)N(C)CC(=O)N[C@@H](CCc2cc(F)c(C(F)(F)F)c(F)c2)C(=O)N2C[C@H](OCC)C[C@H]2C(=O)NC2(CC(C)(C)C2)C(=O)N(C)[C@@H](C2CCCC2)C(=O)N1C [PP1672],NRAS/KRAS (ratio of KD value for NRAS to KD value for KRAS),[1]; [3],A (a compound having 10 or more and less than 20 is denoted as A)
same,HRAS/KRAS (ratio of KD value for HRAS to KD value for KRAS),[2]; [4],A (a compound having 10 or more and less than 20 is denoted as A)
CC[C@H](C)[C@@H]1NC(=O)[C@H](CC(C)C)N(C)C(=O)C[C@@H](C(=O)N2C3CCC2COC3)N(C)C(=O)[C@H](C2CCCC2)N(C)C(=O)C2(CCCC2)NC(=O)[C@@H]2CCCN2C(=O)[C@H](CCc2cc(F)c(C(F)(F)F)c(F)c2)NC(=O)CN(C)C(=O)[C@H](Cc2ccc(C(F)(F)F)cc2)N2CCCC[C@@H](C2=O)N(C)C(=O)CN(C)C1=O [PP0573],NRAS/KRAS (ratio of KD value with respect to GDP-bound NRAS wild-type protein to KD value with respect to KRAS),"[1]; KD ratio NRAS/KRAS, SPR",B (a compound having 3 or more and less than 10 is denoted as B)
same,HRAS/KRAS (ratio of KD value with respect to GDP-bound HRAS wild-type protein to KD value with respect to KRAS),"[2]; KD ratio HRAS/KRAS, SPR",B (a compound having 3 or more and less than 10 is denoted as B)
CCO[C@@H]1C[C@H]2C(=O)NC3(CC(C)(C)C3)C(=O)N(C)[C@@H](C3CCCC3)C(=O)N(C)[C@H](C(=O)N(CC)CC)CC(=O)N(C)[C@@H](COC)C(=O)N[C@@H]([C@@H](C)CC)C(=O)N(C)CC(=O)N(C)[C@H]3C/C=C\CCN(C3=O)[C@@H](Cc3ccc(C)cc3)C(=O)N(C)CC(=O)N[C@@H](CCc3ccc(C(F)(F)F)c(Cl)c3)C(=O)N2C1 [PP2400],NRAS/KRAS (ratio of KD value with respect to NRAS to KD value with respect to KRAS),"[1]; SPR, GDP-bound NRAS wild-type vs GDP-bound KRAS wild-type",A (a compound having 10 or more and less than 20 is denoted as A)
same,HRAS/KRAS (ratio of KD value with respect to HRAS to KD value with respect to KRAS),"[2]; SPR, GDP-bound HRAS wild-type vs GDP-bound KRAS wild-type",A (a compound having 10 or more and less than 20 is denoted as A)
CCC(CC)[C@H]1C(=O)N(C)[C@H](C(=O)N(C)C)CC(=O)N(C)[C@@H](COC)C(=O)N[C@@H]([C@@H](C)CC)C(=O)N(C2CC2)CC(=O)N(C)[C@H]2C/C=C\CCN(C2=O)[C@@H](Cc2ccc(C)cc2)C(=O)N(C)CC(=O)N[C@@H](CCc2cc(F)c(C(F)(F)F)c(F)c2)C(=O)N2C[C@H](OC(C)C)C[C@H]2C(=O)NC2(CC(C)(C)C2)C(=O)N1C [PP2572],NRAS/KRAS (ratio of KD value with respect to GDP-bound NRAS wild-type protein to KD value with respect to KRAS),"[1]; KD ratio NRAS/KRAS, class symbols",A (a compound having 10 or more and less than 20 is denoted as A)
same,HRAS/KRAS (ratio of KD value with respect to GDP-bound HRAS wild-type protein to KD value with respect to KRAS),"[2]; KD ratio HRAS/KRAS, class symbols",A (a compound having 10 or more and less than 20 is denoted as A)
